Reference: PubChem BioAssay AID1963966 (Molecular Pharmacology Branch, DTP, NCI, 2024)

Test system: 935938-334-R-J1-PDC spheroids with HUVEC/MSC, viability
Assay: Anticancer human tumor 935938-334-R-J1-PDC patient-derived small intestine adenocarcinoma cell line growth inhibition [PI3K]
Conditions: for IC50: curve of first compound; for viability, T/C: stronger effect = lower value
In short: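 Viability of mixed-cell spheroids was determined after exposure to pairwise combinations, one partner being inavolisib, alpelisib, duvelisib or copanlisib. Highest tested concentration matched clinical Cmax where known and 10 microM where not, descending in half-log steps.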

[1] = second compound 0.0316 µM, first compound 0.000316 µM
[2] = second compound 0.0316 µM, first compound 0.001 µM
[3] = second compound 0.0316 µM, first compound 0.00316 µM
[4] = second compound 0.0316 µM, first compound 0.01 µM
[5] = second compound 0.0316 µM, first compound 0.0316 µM
[6] = second compound 0.0316 µM, first compound 0.1 µM
[7] = second compound 0.1 µM, first compound 0.000316 µM
[8] = second compound 0.1 µM, first compound 0.001 µM
[9] = second compound 0.1 µM, first compound 0.00316 µM
[10] = second compound 0.1 µM, first compound 0.01 µM
[11] = second compound 0.1 µM, first compound 0.0316 µM
[12] = second compound 0.1 µM, first compound 0.1 µM
[13] = second compound 0.316 µM, first compound 0.000316 µM
[14] = second compound 0.316 µM, first compound 0.001 µM
[15] = second compound 0.316 µM, first compound 0.00316 µM
[16] = second compound 0.316 µM, first compound 0.01 µM
[17] = second compound 0.316 µM, first compound 0.0316 µM
[18] = second compound 0.316 µM, first compound 0.1 µM
[19] = second compound 1 µM, first compound 0.000316 µM
[20] = second compound 1 µM, first compound 0.001 µM
[21] = second compound 1 µM, first compound 0.00316 µM
[22] = second compound 1 µM, first compound 0.01 µM
[23] = second compound 1 µM, first compound 0.0316 µM
[24] = second compound 1 µM, first compound 0.1 µM
[25] = second compound 3.16 µM, first compound 0.000316 µM
[26] = second compound 3.16 µM, first compound 0.001 µM
[27] = second compound 3.16 µM, first compound 0.00316 µM
[28] = second compound 3.16 µM, first compound 0.01 µM
[29] = second compound 3.16 µM, first compound 0.0316 µM
[30] = second compound 3.16 µM, first compound 0.1 µM
[31] = second compound 10 µM, first compound 0.000316 µM
[32] = second compound 10 µM, first compound 0.001 µM
[33] = second compound 10 µM, first compound 0.00316 µM
[34] = second compound 10 µM, first compound 0.01 µM
[35] = second compound 10 µM, first compound 0.0316 µM
[36] = second compound 10 µM, first compound 0.1 µM
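Note: compound exposure lasted seven days before viability was read.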
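Throughout, for viability, T/C: percent of vehicle DMSO treated spheroid viability so 100% = untreated.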

Q: With `CC(=O)c1c(C)c2cnc(Nc3ccc(N4CCNCC4)cn3)nc2n(C2CCCC2)c1=O` + Cc1nc(NC(=O)N2CCCC2C(N)=O)sc1-c1ccnc(C(C)(C)C(F)(F)F)c1 as the molecule, how does the IC50 (second compound 0.0316 µM) read?
A: Its IC50 is > 100 nM.

Q: What about the IC50 (second compound 0.1 µM) of the same molecule?
A: Its IC50 is > 100 nM.

Q: And the IC50 (second compound 0.316 µM)?
A: The IC50 was 58.2 nM.

Q: What about the IC50 (second compound 1 µM) of the same molecule?
A: The IC50 was 27.8 nM.

Q: What about the IC50 (second compound 3.16 µM) of the same molecule?
A: The IC50 was 2.55 nM.

Q: What about the IC50 (second compound 10 µM) of the same molecule?
A: The IC50 was < 0.316 nM.

Q: What about the viability, T/C [1] of the same molecule?
A: Its viability, T/C is 104%.

Q: And the viability, T/C [2]?
A: Its viability, T/C is 95.7%.

Q: And the viability, T/C [3]?
A: Its viability, T/C is 112%.

Q: And the viability, T/C [4]?
A: Its viability, T/C is 102%.

Q: What about the viability, T/C [5] of the same molecule?
A: The viability, T/C was 74.8%.

Q: And the viability, T/C [6]?
A: Its viability, T/C is 55.9%.

Q: What about the viability, T/C [7] of the same molecule?
A: The viability, T/C was 94.4%.

Q: What about the viability, T/C [8] of the same molecule?
A: Its viability, T/C is 96.5%.

Q: And the viability, T/C [9]?
A: The viability, T/C was 89.4%.

Q: What about the viability, T/C [10] of the same molecule?
A: The viability, T/C was 78.5%.

Q: What about the viability, T/C [11] of the same molecule?
A: The viability, T/C was 85.7%.

Q: And the viability, T/C [12]?
A: Its viability, T/C is 52.8%.

Q: And the viability, T/C [13]?
A: Its viability, T/C is 87.8%.

Q: What about the viability, T/C [14] of the same molecule?
A: The viability, T/C was 75%.

Q: What about the viability, T/C [15] of the same molecule?
A: Its viability, T/C is 63.4%.

Q: And the viability, T/C [16]?
A: Its viability, T/C is 80.7%.

Q: What about the viability, T/C [17] of the same molecule?
A: The viability, T/C was 51.6%.

Q: And the viability, T/C [18]?
A: Its viability, T/C is 44.1%.

Q: And the viability, T/C [19]?
A: Its viability, T/C is 77%.

Q: What about the viability, T/C [20] of the same molecule?
A: The viability, T/C was 49.8%.

Q: And the viability, T/C [21]?
A: The viability, T/C was 63.3%.

Q: And the viability, T/C [22]?
A: The viability, T/C was 76.4%.

Q: What about the viability, T/C [23] of the same molecule?
A: The viability, T/C was 47.9%.

Q: What about the viability, T/C [24] of the same molecule?
A: The viability, T/C was 31.1%.

Q: What about the viability, T/C [25] of the same molecule?
A: Its viability, T/C is 67.2%.

Q: What about the viability, T/C [26] of the same molecule?
A: The viability, T/C was 61.8%.

Q: And the viability, T/C [27]?
A: Its viability, T/C is 43.7%.

Q: What about the viability, T/C [28] of the same molecule?
A: The viability, T/C was 42%.

Q: What about the viability, T/C [29] of the same molecule?
A: Its viability, T/C is 33.1%.

Q: And the viability, T/C [30]?
A: The viability, T/C was 29.9%.

Q: What about the viability, T/C [31] of the same molecule?
A: Its viability, T/C is 39.5%.

Q: What about the viability, T/C [32] of the same molecule?
A: The viability, T/C was 40%.

Q: What about the viability, T/C [33] of the same molecule?
A: The viability, T/C was 35.3%.

Q: And the viability, T/C [34]?
A: Its viability, T/C is 37.2%.

Q: And the viability, T/C [35]?
A: The viability, T/C was 33.3%.

Q: And the viability, T/C [36]?
A: Its viability, T/C is 26.5%.

Q: Which results are given for `CC(C)n1nc(-c2ccc3oc(N)nc3c2)c2c(N)ncnc21` + Cc1nc(NC(=O)N2CCCC2C(N)=O)sc1-c1ccnc(C(C)(C)C(F)(F)F)c1?
A: IC50 (second compound 0.0316 µM): > 100 nM; IC50 (second compound 0.1 µM): > 100 nM; IC50 (second compound 0.316 µM): 17 nM; IC50 (second compound 1 µM): 7.19 nM; IC50 (second compound 3.16 µM): 3.77 nM; IC50 (second compound 10 µM): < 0.316 nM; viability, T/C [1]: 91.5%; viability, T/C [2]: 91%; viability, T/C [3]: 81.3%; viability, T/C [4]: 93.6%; viability, T/C [5]: 64.9%; viability, T/C [6]: 51.6%; viability, T/C [7]: 89%; viability, T/C [8]: 82.1%; viability, T/C [9]: 75.9%; viability, T/C [10]: 92%; viability, T/C [11]: 68.7%; viability, T/C [12]: 54.5%; viability, T/C [13]: 83.4%; viability, T/C [14]: 72.2%; viability, T/C [15]: 92.8%; viability, T/C [16]: 54.1%; viability, T/C [17]: 54.9%; viability, T/C [18]: 35.5%; viability, T/C [19]: 66.5%; viability, T/C [20]: 74.3%; viability, T/C [21]: 66.8%; viability, T/C [22]: 42.5%; viability, T/C [23]: 37.6%; viability, T/C [24]: 27.1%; viability, T/C [25]: 51%; viability, T/C [26]: 59.8%; viability, T/C [27]: 47.8%; viability, T/C [28]: 43%; viability, T/C [29]: 27.3%; viability, T/C [30]: 28.9%; viability, T/C [31]: 35.5%; viability, T/C [32]: 37.7%; viability, T/C [33]: 61.5%; viability, T/C [34]: 35%; viability, T/C [35]: 37.3%; viability, T/C [36]: 30.1%

Q: Which results are given for `CCCS(=O)(=O)Nc1ccc(F)c(C(=O)c2c[nH]c3ncc(-c4ccc(Cl)cc4)cc23)c1F` + Cc1nc(NC(=O)N2CCCC2C(N)=O)sc1-c1ccnc(C(C)(C)C(F)(F)F)c1?
A: IC50 (second compound 0.0316 µM): 6360 nM; IC50 (second compound 0.1 µM): 6490 nM; IC50 (second compound 0.316 µM): 5570 nM; IC50 (second compound 1 µM): 5520 nM; IC50 (second compound 3.16 µM): 4600 nM; IC50 (second compound 10 µM): 31.6 nM; viability, T/C [5]: 85.6%; viability, T/C [6]: 113%; viability, T/C (second compound 0.0316 µM, first compound 0.316 µM): 98.5%; viability, T/C (second compound 0.0316 µM, first compound 1 µM): 97.6%; viability, T/C (second compound 0.0316 µM, first compound 3.16 µM): 94.1%; viability, T/C (second compound 0.0316 µM, first compound 10 µM): 21.5%; viability, T/C [11]: 90.2%; viability, T/C [12]: 75.4%; viability, T/C (second compound 0.1 µM, first compound 0.316 µM): 105%; viability, T/C (second compound 0.1 µM, first compound 1 µM): 112%; viability, T/C (second compound 0.1 µM, first compound 3.16 µM): 98.2%; viability, T/C (second compound 0.1 µM, first compound 10 µM): 22.3%; viability, T/C [17]: 82%; viability, T/C [18]: 110%; viability, T/C (second compound 0.316 µM, first compound 0.316 µM): 88.9%; viability, T/C (second compound 0.316 µM, first compound 1 µM): 95.5%; viability, T/C (second compound 0.316 µM, first compound 3.16 µM): 81.2%; viability, T/C (second compound 0.316 µM, first compound 10 µM): 17.6%; viability, T/C [23]: 75.3%; viability, T/C [24]: 85%; viability, T/C (second compound 1 µM, first compound 0.316 µM): 88%; viability, T/C (second compound 1 µM, first compound 1 µM): 74.1%; viability, T/C (second compound 1 µM, first compound 3.16 µM): 77.1%; viability, T/C (second compound 1 µM, first compound 10 µM): 21.2%; viability, T/C [29]: 63.1%; viability, T/C [30]: 52.7%; viability, T/C (second compound 3.16 µM, first compound 0.316 µM): 69%; viability, T/C (second compound 3.16 µM, first compound 1 µM): 65.5%; viability, T/C (second compound 3.16 µM, first compound 3.16 µM): 67.5%; viability, T/C (second compound 3.16 µM, first compound 10 µM): 22.1%; viability, T/C [35]: 36.9%; viability, T/C [36]: 47.2%; viability, T/C (second compound 10 µM, first compound 0.316 µM): 54.2%; viability, T/C (second compound 10 µM, first compound 1 µM): 51.7%; viability, T/C (second compound 10 µM, first compound 3.16 µM): 54.4%; viability, T/C (second compound 10 µM, first compound 10 µM): 18.2%
